Legend:
Assay in all cases: Test E postemergence
corn = type: in vivo, Zea mays
Text: (§1) Seeds of plant species selected from corn (Zea mays), soybean (Glycine max), velvetleaf (Abutilon theophrasti), lambsquarters (Chenopodium album), wild poinsettia (Euphorbia heterophylla), palmer pigweed (Amaranthus palmeri), waterhemp (common waterhemp, Amaranthus rudis), surinam grass (Brachiaria decumbens), large (Lg) crabgrass (Digitaria sanguinalis), Brazilian crabgrass (Digitaria horizontalis), fall panicum (Panicum dichotomiflorum), giant foxtail (Setaria faberii), green foxtail (Setaria viridis), goosegrass (Eleusine indica), johnsongrass (Sorghum halepense), ragweed (common ragweed, Ambrosia elatior), barnyardgrass (Echinochloa crus-galli), sandbur (southern sandbur, Cenchrus echinatus), arrowleaf sida (Sida rhombifolia), Italian ryegrass (Lolium multiflorum), dayflower (Virginia (VA) dayflower, Commelina virginica), field bindweed (Convolvulus arvensis), morningglory (Ipomoea coccinea), nightshade (eastern black nightshade, Solanum ptycanthum), kochia (Kochia scoparia), yellow nutsedge (Cyperus esculentus), cocklebur (common cocklebur, Xanthium strumarium), smartweed (ladysthumb smartweed, and hairy beggarticks (Bidens pilosa), were planted into a silt loam soil and treated preemergence with test chemicals formulated in a non-phytotoxic solvent mixture which included a surfactant.
(§2) At the same time, plants from these crop and weed species and also horseweed (Canada horseweed, Conyza canadensis), waterhemp_RES1, (ALS & Triazine resistant common waterhemp, Amaranthus rudis), and waterhemp_RES2, (ALS & HPPD resistant common waterhemp, Amaranthus rudis) were planted in pots containing Redi-Earth® planting medium (Scotts Company, 14111 Scottslawn Road, Marysville, Ohio 43041) comprising spaghnum peat moss, vermiculite, wetting agent and starter nutrients were treated with postemergence applications of test chemicals formulated in the same manner. Plants ranged in height from 2 to 18 cm for postemergence treatments (1- to 4-leaf stage). Treated plants and controls were maintained in a greenhouse for 14 to 21 days, after which time all species were compared to controls and visually evaluated. Plant response ratings, summarized in Table E, are based on a scale of 0 to 100 where 0 is no effect and 100 is complete control. A dash (-) response means no test result.

dayflower = type: in vivo, Commelina virginica
Text: as §1, §2

arrowleaf sida = type: in vivo, Sida rhombifolia
Text: as §1, §2

[1] = Postemergence, 31 g ai/ha, scale 0 to 100
[2] = Postemergence, 62 g ai/ha, scale 0 to 100
[3] = Postemergence, 125 g ai/ha, scale 0 to 100
[4] = Postemergence, 250 g ai/ha, scale 0 to 100
[5] = postemergence, 16 g ai/ha, scale 0 to 100, 0 no effect, 100 complete control
[6] = postemergence, 8 g ai/ha, scale 0 to 100, 0 no effect, 100 complete control

| Structure (SMILES) | Plant response rating, Corn (corn; [1]) | Plant response rating, Corn (corn; [2]) | Plant response rating, Corn (corn; [3]) | Plant response rating, Corn (corn; [5]) | Plant response rating, Dayflower, VA (dayflower; [1]) | Plant response rating, Dayflower, VA (dayflower; [2]) | Plant response rating, Dayflower, VA (dayflower; [3]) | Plant response rating, Dayflower, VA (dayflower; [5]) | Plant response rating, Arrowleaf Sida (arrowleaf sida; [1]) | Plant response rating, Arrowleaf Sida (arrowleaf sida; [2]) | Plant response rating, Arrowleaf Sida (arrowleaf sida; [3]) | Plant response rating, Arrowleaf Sida (arrowleaf sida; [5]) | also measured |
| --- | --- | --- | --- | --- | --- | --- | --- | --- | --- | --- | --- | --- | --- |
| Fc1cnc(Oc2ccccc2-n2cc(Br)cn2)nc1 [Compound 10, 2-[2-(4-bromo-1H-pyrazol-1-yl)phenoxy]-5-fluoropyrimidine] |  |  |  |  |  |  |  |  |  |  |  |  | corn plant response (injury) rating, 0-100 at 31 g/ha (corn; Zea mays, post-emergence, Postemergence, 31 g ai/ha, scale 0 to 100): 0%; corn plant response (injury) rating, 0-100 at 62 g/ha (corn; Zea mays, post-emergence, Postemergence, 62 g ai/ha, scale 0 to 100): 0%; corn plant response (injury) rating, 0-100 at 125 g/ha (corn; Zea mays, post-emergence, Postemergence, 125 g ai/ha, scale 0 to 100): 0%; corn plant response (injury) rating, 0-100 at 250 g/ha (corn; Zea mays, post-emergence, Postemergence, 250 g ai/ha, scale 0 to 100): 0%; corn plant response (injury) rating, 0-100 at 16 g/ha (corn; Zea mays, post-emergence, postemergence, 16 g ai/ha, scale 0 to 100, 0 no effect, 100 complete control): 0%; pest or weed control at 31 g/ha (dayflower; Commelina virginica, post-emergence, Postemergence, 31 g ai/ha, scale 0 to 100, read-out: Plant response rating, Dayflower, VA): 10%; pest or weed control at 62 g/ha (dayflower; Commelina virginica, post-emergence, Postemergence, 62 g ai/ha, scale 0 to 100, read-out: Plant response rating, Dayflower, VA): 40%; pest or weed control at 125 g/ha (dayflower; Commelina virginica, post-emergence, Postemergence, 125 g ai/ha, scale 0 to 100, read-out: Plant response rating, Dayflower, VA): 50%; pest or weed control at 250 g/ha (dayflower; Commelina virginica, post-emergence, Postemergence, 250 g ai/ha, scale 0 to 100, read-out: Plant response rating, Dayflower, VA): 75%; pest or weed control at 16 g/ha (dayflower; Commelina virginica, post-emergence, postemergence, 16 g ai/ha, scale 0 to 100, 0 no effect, 100 complete control, read-out: Plant response rating, Dayflower, VA): 5%; pest or weed control at 31 g/ha (arrowleaf sida; Sida rhombifolia, post-emergence, Postemergence, 31 g ai/ha, scale 0 to 100, read-out: Plant response rating, Arrowleaf Sida): 50%; pest or weed control at 62 g/ha (arrowleaf sida; Sida rhombifolia, post-emergence, Postemergence, 62 g ai/ha, scale 0 to 100, read-out: Plant response rating, Arrowleaf Sida): 70%; pest or weed control at 125 g/ha (arrowleaf sida; Sida rhombifolia, post-emergence, Postemergence, 125 g ai/ha, scale 0 to 100, read-out: Plant response rating, Arrowleaf Sida): 80%; pest or weed control at 250 g/ha (arrowleaf sida; Sida rhombifolia, post-emergence, Postemergence, 250 g ai/ha, scale 0 to 100, read-out: Plant response rating, Arrowleaf Sida): 85%; pest or weed control at 16 g/ha (arrowleaf sida; Sida rhombifolia, post-emergence, postemergence, 16 g ai/ha, scale 0 to 100, 0 no effect, 100 complete control, read-out: Plant response rating, Arrowleaf Sida): 40% |
| FC(F)(F)c1cnn(-c2ccccc2Oc2ncc(Cl)cn2)c1 [Compound 16] | 0 | 0 | 10 | 0 | 10 | 15 | 30 | 0 | 70 | 75 | 80 | 50 | Plant response rating, Corn (corn; [4]): 15; Plant response rating, Dayflower, VA (dayflower; [4]): 40; Plant response rating, Arrowleaf Sida (arrowleaf sida; [4]): 90 |
| Clc1cnc(Oc2cccc(Br)c2-n2cc(Br)cn2)nc1 [Compound 65] | 10 | 10 | 10 | 0 | 10 | 10 | 20 | 5 | 60 | 80 | 80 | 50 | Plant response rating, Corn (corn; [6]): 0; Plant response rating, Dayflower, VA (dayflower; [6]): 5; Plant response rating, Arrowleaf Sida (arrowleaf sida; [6]): 55 |

Reference: patent US9695155B2, “Herbicidal substituted pyrimidinyloxy benzene compounds” (E. I. DU PONT DE NEMOURS AND COMPANY, priority 2013, dated 2017)
